The conditions of the data set: Crystal; Heating/Cooling curves.

Each structure is given as a SMILES string. Numbers after ± are expanded uncertainties.

Take `[2H]C([2H])([2H])S(=O)C([2H])([2H])[2H]` [(methyl sulfoxide)-d6]: the Normal melting temperature is 20.2 ± 0.21 °C.
Consider `CCOC(=O)OC` [ethyl methyl carbonate], for which the Normal melting temperature was -55.01 ± 0.41 °C.
As for `CC#N` [acetonitrile], the Normal melting temperature was -44.08 ± 0.41 °C.
For `CCCCCCCC[N+](C)(CCCCCCCC)CCCCCCCC.O=C([O-])C(F)(F)F` [methyltrioctylammonium trifluoroacetate] the value was 12.47 ± 0.21 °C.
For `O=C1OCCO1` [ethylene carbonate] the value was 35.38 ± 0.21 °C; for `C1COCCO1` [1,4-dioxane], 11.33 ± 0.41 °C; for `O=C1CCCO1` [γ-butyrolactone], -44.71 ± 0.21 °C.
Take `CCn1cc[n+](C)c1.O=S(=O)([O-])C(F)(F)F` [1-ethyl-3-methylimidazolium trifluoromethanesulfonate]: the Normal melting temperature was -10.92 ± 0.6 °C.
Regarding `CCOC(=O)CC` [ethyl propanoate], the Normal melting temperature is -73.44 ± 0.09 °C.
For `COC(=O)OC` [dimethyl carbonate] the value was 3.91 ± 0.6 °C; for `COCCC#N` [3-methoxypropanenitrile], -63.62 ± 0.53 °C.
For `CCOC(=O)OCC` [diethyl carbonate] the value was -77.29 ± 0.6 °C; for `COCCOC` [1,2-dimethoxyethane], -69.74 ± 0.21 °C; for `CCC1COC(=O)O1` (stereo unspecified) [1,2-butylene carbonate], -52.81 ± 1.2 °C.
The figure for `C[S+](C)[O-]` [dimethyl sulfoxide] is 17.80 ± 2 °C; for `C[N+](=O)[O-]` [nitromethane] it is -29.79 ± 0.41 °C.

The values above are taken from the NIST ThermoML archive (doi:10.1016/j.jct.2008.05.012).
